Drawing on patent publication US4851387A, “5-substituted amino-4-hydroxy-pentanoic acid derivatives and their use” (Banyu Pharmaceutical Co., Ltd., priority 1986, dated 1989), this text covers IC50 for three compounds.

In this experiment the target is T1, renin (human plasma) (Homo sapiens, UniProt P00797).
T1 construct: from tissue; host or cells: human plasma
T1 sequence (P00797 67-406): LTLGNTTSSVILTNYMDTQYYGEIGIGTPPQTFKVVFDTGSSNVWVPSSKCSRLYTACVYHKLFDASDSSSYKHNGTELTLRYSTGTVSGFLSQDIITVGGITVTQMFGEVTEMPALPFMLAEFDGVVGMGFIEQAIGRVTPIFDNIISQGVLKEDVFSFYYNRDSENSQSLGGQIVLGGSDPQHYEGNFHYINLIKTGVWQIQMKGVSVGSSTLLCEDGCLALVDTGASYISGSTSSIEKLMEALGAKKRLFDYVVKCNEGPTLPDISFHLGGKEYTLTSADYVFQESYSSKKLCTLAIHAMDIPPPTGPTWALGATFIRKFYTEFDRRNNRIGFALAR
Kind of experiment: Test example for renin inhibiting activities: angiotensin I formation in human plasma, measured by radio immunoassay. It counts as biochemical. The following applies: 0.2M sodium phosphate buffer pH7.4, 37° C. for one hour, read-out: IC50 (mol), 50% inhibition concentration of renin inhibiting activity. As for the experimental part:
To 156 μl of a 0.2M sodium phosphate buffer solution (pH7.4), 40 μl of a solution mixture of 34 mM 8-hydroxyquinoline and 100 mM disodium ethylenediaminetetraacetate, 4 μl of dimethyl sulfoxide or a dimethyl sulfoxide solution of an inhibitor and 200 μl of human plasma were added and reacted at 37° C. for one hour. Then, pepstatin was added thereto to terminate the reaction, and the amount of the resulting angiotension I was measured by radio immunoassay whereby the inhibiting activity was determined.

On to `CCCCC(NC(=O)C(Cc1cccc2ccccc12)NC(=O)OCc1ccccc1)C(=O)N[C@@H](CC(C)C)[C@@H](O)CC(CCCO)C(=O)NCC(C)C` (mixture of isomers) [Example 14(8), (2RS,4S,5S)-5-(L-N-benzyloxycarbonylnaphthylalanyl-L-norleucyl)amino-4-hydroxy-2-(3-hydroxypropyl)-7-methyl-octanoic acid isobutylamide], for which the IC50 is 5 nM.

On to `CCCCC(NC(=O)C(Cc1cccc2ccccc12)NC(=O)OCc1ccccc1)C(=O)N[C@@H](CC(C)C)[C@@H](O)CC(C(=O)NCC(C)C)C(C)C` (mixture of isomers) [comparative compound, (2RS,4S,5S)-5-(L-N-benzyloxycarbonyl-naphthylalanyl-L-norleucyl)amino-4-hydroxy-2-isopropyl-7-methyl-octanoic acid isobutylamide, reference compound], for which the IC50 is 40 nM.

With “(2RS,4S,5S)-5-(L-N-benzyloxycarbonylnaphthylalanyl-L-norleucyl)amino-4-hydroxy-2-(2-hydroxyethyl)-7-methyloctanoic acid isobutylamide [Example 15(3)]”, the IC50 was found to be 7 nM.
